Our source for the MIC values is patent US11014934B2, “Antiseptic drug” (AO “TATKHIMFARMPREPARATY”, priority 2017, dated 2021).

Read-outs that look alike come from different tables or passages of the source. Where only a bound is given, the exact number is not on record here.

Experiment in all cases: MIC, serial dilutions in Müller-Hinton broth
What all share (format): cell-based

One assay deals with S. aureus 1053 MRSA. The procedure, abridged: (§1)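 Broth microdilution in Müller-Hinton broth following MUK 4.2.1890-04, with two-fold compound dilutions at final 1-128 ug/ml. The inoculum was set to 0.5 McFarland and diluted to 10^7 CFU/ml before addition, then plates were incubated at 37° C. for 24 hours. MIC was the lowest concentration without visible growth, taking the highest of three independent runs.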

A further assay deals with S. aureus 22. The procedure, abridged:
as §1

Another assay has as its system E. faecium 25. The procedure, abridged:
as §1

A further assay relates to Kl. pneumoniae 1781. The procedure, abridged: as §1
Another assay concerns S. aureus 1134 MRSA. The procedure, abridged: as §1
The next assay concerns S. intermedius 1143 MRSA. The procedure, abridged:
as §1

The subject of a further assay is Stenotrophomonas spp. 9. The procedure, abridged: as §1
In a further assay the test system is E. faecalis 23. The procedure, abridged:
as §1

The next assay deals with Klebsiella spp. 11. The procedure, abridged: as §1
In another assay the test system is S. aureus ATCC 209p. The procedure, abridged:
as §1

The subject of a further assay is S. aureus 1168 MRSA. The procedure, abridged: as §1
The next assay relates to Moraxella sp. 764. The procedure, abridged: as §1
A further assay deals with E. coli CDCF-50. The procedure, abridged: as §1
For another assay, the system named is E. faecium 3030. The procedure, abridged:
as §1

The subject of another assay is Moraxella sp. 765. The procedure, abridged: as §1
A further assay relates to E. faecium 28. The procedure, abridged:
as §1

The next assay relates to E. coli 13. The procedure, abridged: as §1

What is called MIC is the lowest concentration that inhibits growth of the organism. `CCCCCCCCCCCC[N+](C)(C)Cc1cnc(C[N+](C)(C)CCCCCCCCCCCC)c2c1COC(CC)O2` (stereo not drawn) [Compound I, 5,8-(Bis(methylene (N, N-dimethyl-N-dodecylammonium))-2-ethyl-4H-[1,3]dioxino [4,5-c]pyridiniumdichloride]: the MIC in the assay on S. aureus 1053 MRSA (Staphylococcus aureus, S. aureus 1053 MRSA, inoculum 10^7 CFU/ml, read-out: MIC) was found to be 2 µg/mL; in the assay on S. aureus 22 (Staphylococcus aureus, S. aureus 22, inoculum 10^7 CFU/ml, read-out: MIC), 1 µg/mL; in the assay with E. faecium 25 (Enterococcus faecium, E. faecium 25, inoculum 10^7 CFU/ml, read-out: MIC), 0.03 µg/mL; in the assay on Kl. pneumoniae 1781 (Klebsiella pneumoniae, Kl. pneumoniae 1781, inoculum 10^7 CFU/ml, read-out: MIC) it was 2 µg/mL; in the assay with S. aureus 1134 MRSA (Staphylococcus aureus, S. aureus 1134 MRSA, inoculum 10^7 CFU/ml, read-out: MIC), 2 µg/mL; with S. intermedius 1143 MRSA (S. intermedius 1143 MRSA, inoculum 10^7 CFU/ml, read-out: MIC), 4 µg/mL. For the same compound, the MIC was 8 µg/mL in the assay with Stenotrophomonas spp. 9 (Stenotrophomonas spp. 9, inoculum 10^7 CFU/ml, read-out: MIC); 0.03 µg/mL in the assay with E. faecalis 23 (Enterococcus faecalis, E. faecalis 23, inoculum 10^7 CFU/ml, read-out: MIC); 16 µg/mL in the assay on Klebsiella spp. 11 (Klebsiella spp. 11, inoculum 10^7 CFU/ml, read-out: MIC); 2 µg/mL in the assay on S. aureus ATCC 209p (Staphylococcus aureus, ATCC209P, S. aureus ATCC 209p, inoculum 10^7 CFU/ml, read-out: MIC); 1 µg/mL in the assay on S. aureus 1168 MRSA (Staphylococcus aureus, S. aureus 1168 MRSA, inoculum 10^7 CFU/ml, read-out: MIC); 8 µg/mL in the assay on Moraxella sp. 764 (Moraxella sp. 764, inoculum 10^7 CFU/ml, read-out: MIC). Moreover, the minimal inhibitory concentration (MIC) in the assay on E. coli CDCF-50 (Escherichia coli, CDCF50, E. coli CDCF-50, inoculum 10^7 CFU/ml, read-out: MIC) was found to be 8 µg/mL; in the assay on E. faecium 3030 (Enterococcus faecium, E. faecium 3030, inoculum 10^7 CFU/ml, read-out: MIC), 1 µg/mL; with Moraxella sp. 765 (Moraxella sp. 765, inoculum 10^7 CFU/ml, read-out: MIC) it was 4 µg/mL; with E. faecium 28 (Enterococcus faecium, E. faecium 28, inoculum 10^7 CFU/ml, read-out: MIC), 0.03 µg/mL; in the assay with E. coli 13 (Escherichia coli, E. coli 13, inoculum 10^7 CFU/ml, read-out: MIC) it was 8 µg/mL.

Take “alkyldimethyl(phenylmethyl) ammonium chloride [Benzalconium chloride]”: the MIC was 4 µg/mL in the assay with S. aureus 1053 MRSA (S. aureus 1053 MRSA, inoculum 10^7 CFU/ml); <0.5 µg/mL in the assay with S. aureus 22 (S. aureus 22, inoculum 10^7 CFU/ml); <0.5 µg/mL against E. faecium 25 (E. faecium 25, inoculum 10^7 CFU/ml); 16 µg/mL in the assay with Kl. pneumoniae 1781 (Kl. pneumoniae 1781, inoculum 10^7 CFU/ml); 2 µg/mL against S. aureus 1134 MRSA (S. aureus 1134 MRSA, inoculum 10^7 CFU/ml); 4 µg/mL in the assay on S. intermedius 1143 MRSA (S. intermedius 1143 MRSA, inoculum 10^7 CFU/ml). Further, the MIC in the assay on Stenotrophomonas spp. 9 (Stenotrophomonas spp. 9, inoculum 10^7 CFU/ml) is 4 µg/mL; in the assay on E. faecalis 23 (E. faecalis 23, inoculum 10^7 CFU/ml), <0.5 µg/mL; with Klebsiella spp. 11 (Klebsiella spp. 11, inoculum 10^7 CFU/ml), 2 µg/mL; in the assay on S. aureus ATCC 209p (S. aureus ATCC 209p, inoculum 10^7 CFU/ml) it was 4 µg/mL; against S. aureus 1168 MRSA (S. aureus 1168 MRSA, inoculum 10^7 CFU/ml), 2 µg/mL; in the assay with Moraxella sp. 764 (Moraxella sp. 764, inoculum 10^7 CFU/ml), 4 µg/mL. The MIC with E. coli CDCF-50 (E. coli CDCF-50, inoculum 10^7 CFU/ml) was 4 µg/mL; in the assay on E. faecium 3030 (E. faecium 3030, inoculum 10^7 CFU/ml), 0.5 µg/mL; against Moraxella sp. 765 (Moraxella sp. 765, inoculum 10^7 CFU/ml) it was 32 µg/mL; in the assay on E. faecium 28 (E. faecium 28, inoculum 10^7 CFU/ml), <0.5 µg/mL; in the assay on E. coli 13 (E. coli 13, inoculum 10^7 CFU/ml), 2 µg/mL.

As for `CCCCCCCCCCCCCC(=O)NCCC[N+](C)(C)Cc1ccccc1.O.[Cl-]` [Miramistin, benzyldimethyl [3-(myristoylamino)propyl]-ammonium chloride monohydrate], the MIC against S. aureus 1053 MRSA (Staphylococcus aureus, MRSA) was 4 µg/mL; with S. aureus 22 (Staphylococcus aureus, 22), 8 µg/mL; against E. faecium 25 (Enterococcus faecium, 25), < 0.5 µg/mL; against Kl. pneumoniae 1781 (Klebsiella pneumoniae, 1781), 64 µg/mL; with S. aureus 1134 MRSA (Staphylococcus aureus, MRSA), 8 µg/mL; against S. intermedius 1143 MRSA, 8 µg/mL. For the same compound, the MIC in the assay with Stenotrophomonas spp. 9 (Stenotrophomonas, SPP.9) was 64 µg/mL; in the assay with E. faecalis 23 (Enterococcus faecalis, 23) it was 4 µg/mL; in the assay on Klebsiella spp. 11 (Klebsiella, SPP.11), 64 µg/mL; against S. aureus ATCC 209p (Staphylococcus aureus, ATCC209P), 8 µg/mL; against S. aureus 1168 MRSA (Staphylococcus aureus, MRSA) it was 8 µg/mL; against Moraxella sp. 764 (Moraxella, SP.764) it was 64 µg/mL. Also, the minimal inhibitory concentration (MIC) stood at 64 µg/mL with E. coli CDCF-50 (Escherichia coli, CDCF50); 0.5 µg/mL with E. faecium 3030 (Enterococcus faecium, 3030); 64 µg/mL with Moraxella sp. 765 (Moraxella, SP.765); 32 µg/mL against E. faecium 28 (Enterococcus faecium, 28); 32 µg/mL against E. coli 13 (Escherichia coli, 13).
